{"source": "paper PMC8523698", "about": "“Preclinical characterization of an intravenous coronavirus 3CL protease inhibitor for the potential treatment of COVID19” (Nature Communications, 2021)", "key": {"[1]": {"assay": "LogD shake-flask measurement at pH 7.4", "details": "1-octanol/0.1 M sodium phosphate buffer"}, "SARS-CoV-2 USA-WA1/2020": {"test_system": "SARS-CoV-2 USA-WA1/2020", "assay": "Ad5-hACE2 SARS-CoV-2 mouse infection model", "format": "in vivo, BALB/c mice", "details": "100 mg/kg BID from day 0; lungs day 3; individual mice"}, "HKU5-CoV 3CL^pro": {"molecular_target": "HKU5-CoV 3CL^pro (Bat coronavirus HKU5, UniProt P0C6W4)", "sequence (P0C6W4 3339-3644 limits assumed)": "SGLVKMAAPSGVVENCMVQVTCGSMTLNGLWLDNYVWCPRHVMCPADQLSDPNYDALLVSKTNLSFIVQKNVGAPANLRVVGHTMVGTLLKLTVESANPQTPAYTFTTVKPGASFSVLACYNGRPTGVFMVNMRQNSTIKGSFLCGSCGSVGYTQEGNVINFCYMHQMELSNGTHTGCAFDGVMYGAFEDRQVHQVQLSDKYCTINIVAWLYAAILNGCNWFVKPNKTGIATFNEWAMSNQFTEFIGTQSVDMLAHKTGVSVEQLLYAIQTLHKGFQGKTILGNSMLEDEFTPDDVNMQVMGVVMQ", "format": "biochemical", "details": "for Initial Velocity: triplicate, listed as Compound F2"}, "HKU1-CoV 3CL^pro": {"molecular_target": "HKU1-CoV 3CL^pro (Human coronavirus HKU1, UniProt P0C6X2)", "sequence (P0C6X2 3335-3637)": "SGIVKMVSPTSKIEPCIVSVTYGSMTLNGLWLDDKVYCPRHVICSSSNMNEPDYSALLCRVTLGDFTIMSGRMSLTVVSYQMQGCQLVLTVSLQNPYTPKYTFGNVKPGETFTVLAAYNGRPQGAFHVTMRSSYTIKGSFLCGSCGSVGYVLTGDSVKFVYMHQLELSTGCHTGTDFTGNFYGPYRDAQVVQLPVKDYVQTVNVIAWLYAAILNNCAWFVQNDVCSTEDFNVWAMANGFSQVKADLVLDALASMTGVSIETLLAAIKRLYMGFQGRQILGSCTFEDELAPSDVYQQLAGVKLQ", "assay": "biochemical"}, "SARS-CoV-2 [2]": {"test_system": "SARS-CoV-2", "details": "cited from earlier work"}, "[3]": {"assay": "Metabolic stability in pooled human liver microsomes (intrinsic clearance)", "details": "both, pH 7.5"}, "CYP3A4/5": {"molecular_target": "CYP3A4/5 (Homo sapiens, UniProt P08684)", "sequence (P08684 whole entry)": "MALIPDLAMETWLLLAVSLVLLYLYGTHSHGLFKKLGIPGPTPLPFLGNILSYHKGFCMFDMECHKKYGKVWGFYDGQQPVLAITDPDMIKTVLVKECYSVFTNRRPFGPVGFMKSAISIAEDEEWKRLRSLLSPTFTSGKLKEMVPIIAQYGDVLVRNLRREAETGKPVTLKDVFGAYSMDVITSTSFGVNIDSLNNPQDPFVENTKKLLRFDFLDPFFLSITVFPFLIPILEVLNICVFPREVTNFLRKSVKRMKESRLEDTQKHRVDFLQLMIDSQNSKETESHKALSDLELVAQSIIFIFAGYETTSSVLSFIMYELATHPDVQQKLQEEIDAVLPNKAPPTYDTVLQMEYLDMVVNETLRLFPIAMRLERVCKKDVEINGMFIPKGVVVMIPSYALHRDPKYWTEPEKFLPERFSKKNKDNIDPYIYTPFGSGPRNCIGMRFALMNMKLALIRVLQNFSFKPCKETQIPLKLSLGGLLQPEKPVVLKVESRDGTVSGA", "assay": "Time-dependent inhibition of CYP enzymes in human liver microsomes", "details": "CYP3A4; Simcyp interaction input"}, "Human Cathepsin D": {"molecular_target": "Human Cathepsin D (Homo sapiens, UniProt P07339)", "sequence (P07339 65-412)": "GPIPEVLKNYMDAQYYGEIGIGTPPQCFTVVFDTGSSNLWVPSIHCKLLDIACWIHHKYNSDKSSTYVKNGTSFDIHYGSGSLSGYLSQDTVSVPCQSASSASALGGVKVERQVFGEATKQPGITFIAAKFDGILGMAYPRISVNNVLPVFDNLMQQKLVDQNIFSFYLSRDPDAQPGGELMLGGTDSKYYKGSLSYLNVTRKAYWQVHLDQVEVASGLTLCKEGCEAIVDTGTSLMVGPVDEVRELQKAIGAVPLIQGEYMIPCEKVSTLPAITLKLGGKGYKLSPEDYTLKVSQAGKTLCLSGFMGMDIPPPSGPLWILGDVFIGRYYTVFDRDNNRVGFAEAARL", "assay": "Mammalian protease panel", "format": "biochemical"}, "SARS-CoV-2 [4]": {"test_system": "SARS-CoV-2", "assay": "microbe, parasite or virus in culture", "format": "cell-based", "details": "Severe acute respiratory syndrome coronavirus 2, Vero C1008; N=3; read-out: EC50 ± Std. Dev"}, "[5]": {"details": "300 mg/kg dose group"}, "MHV-CoV 3CL^pro": {"molecular_target": "MHV-CoV 3CL^pro (Murine coronavirus, UniProt P0C6X9)", "sequence (P0C6X9 3334-3635)": "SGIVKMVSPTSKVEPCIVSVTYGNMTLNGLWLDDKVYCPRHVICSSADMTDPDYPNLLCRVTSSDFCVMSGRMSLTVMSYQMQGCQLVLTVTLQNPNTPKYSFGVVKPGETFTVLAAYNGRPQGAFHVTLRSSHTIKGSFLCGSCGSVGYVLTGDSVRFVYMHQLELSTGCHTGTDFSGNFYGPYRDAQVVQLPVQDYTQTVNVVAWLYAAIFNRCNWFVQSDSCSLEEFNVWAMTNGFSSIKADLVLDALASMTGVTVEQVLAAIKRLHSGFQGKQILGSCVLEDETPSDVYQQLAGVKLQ", "format": "biochemical"}, "[6]": {"assay": "Liver microsome binding by equilibrium dialysis", "details": "for fraction unbound at 6 h: human, human liver microsomes, fu"}, "CYP3A": {"test_system": "CYP3A", "assay": "Enzyme kinetics of metabolite formation in HLM and effect of CYP3A inhibitor ketoconazole"}, "[7]": {"assay": "PBPK modeling (Simcyp) of DDI with itraconazole"}, "NL63-CoV 3CL^pro": {"molecular_target": "NL63-CoV 3CL^pro (Human coronavirus NL63, UniProt P0C6X5)", "sequence (P0C6X5 2940-3242)": "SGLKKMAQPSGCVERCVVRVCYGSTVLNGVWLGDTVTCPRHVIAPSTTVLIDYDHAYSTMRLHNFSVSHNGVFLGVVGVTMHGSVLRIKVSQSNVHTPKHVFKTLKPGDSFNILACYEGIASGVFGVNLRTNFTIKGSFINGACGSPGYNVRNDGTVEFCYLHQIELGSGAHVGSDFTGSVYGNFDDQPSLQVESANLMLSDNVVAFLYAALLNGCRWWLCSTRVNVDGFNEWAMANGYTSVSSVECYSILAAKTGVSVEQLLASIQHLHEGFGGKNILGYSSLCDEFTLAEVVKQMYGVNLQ", "format": "biochemical"}}, "note": "Values joined by “and” are separate entries in the source; they are usually repeats but may differ in a detail not shown here. Identical values can stand only once. Like-named read-outs stand apart in the source and are kept apart here."}
{"molecule": "COc1cccc2[nH]c(C(=O)N[C@@H](CC(C)C)C(=O)N[C@@H](C[C@@H]3CCNC3=O)C(=O)CO)cc12", "note": "[PF-00835231]", "values": [{"measurement": "logD at 1 h", "setting": "[1]", "result": 1.7}, {"measurement": "Lung viral titers", "setting": "SARS-CoV-2 USA-WA1/2020", "result": "160 IU/mL and 240 IU/mL and 110 IU/mL and 3500 IU/mL and 1600 IU/mL and 1100 IU/mL"}, {"measurement": "Initial Velocity", "setting": "HKU5-CoV 3CL^pro; [Compound F2] 1.95312 nM", "result": "0.9802 and 1.028 and 0.9544"}, {"measurement": "Initial Velocity", "setting": "HKU5-CoV 3CL^pro; [Compound F2] 3.90625 nM", "result": "0.9722 and 0.992 and 0.9888"}, {"measurement": "Initial Velocity", "setting": "HKU5-CoV 3CL^pro; [Compound F2] 7.8125 nM", "result": "0.8869 and 0.9497 and 0.9402"}, {"measurement": "Initial Velocity", "setting": "HKU5-CoV 3CL^pro; [Compound F2] 20 nM", "result": "0.7838 and 0.8106 and 0.827"}, {"measurement": "Initial Velocity", "setting": "HKU5-CoV 3CL^pro; [Compound F2] 30 nM", "result": "0.6911 and 0.6076 and 0.6927"}, {"measurement": "Initial Velocity", "setting": "HKU5-CoV 3CL^pro; [Compound F2] 31.25 nM", "result": "0.6277 and 0.6613 and 0.6251"}, {"measurement": "Initial Velocity", "setting": "HKU5-CoV 3CL^pro; [Compound F2] 40 nM", "result": "0.5119 and 0.5104 and 0.5524"}, {"measurement": "Initial Velocity", "setting": "HKU5-CoV 3CL^pro; [Compound F2] 50 nM", "result": "0.32 and 0.3287 and 0.3636"}, {"measurement": "Initial Velocity", "setting": "HKU5-CoV 3CL^pro; [Compound F2] 62.5 nM", "result": "0.1843 and 0.2599 and 0.2229"}, {"measurement": "Initial Velocity", "setting": "HKU5-CoV 3CL^pro; [Compound F2] 80 nM", "result": "0.01707 and 0.01468 and 0.01576"}, {"measurement": "Initial Velocity", "setting": "HKU5-CoV 3CL^pro; [Compound F2] 100 nM", "result": "0.01024 and 0.007665 and 0.009516"}, {"measurement": "Initial Velocity", "setting": "HKU5-CoV 3CL^pro; [Compound F2] 200 nM", "result": "0.003343 and 0.002684 and 0.002549"}, {"measurement": "Initial Velocity", "setting": "HKU5-CoV 3CL^pro; [Compound F2] 300 nM", "result": "0.000987 and 0.001807 and 0.00196"}, {"measurement": "Initial Velocity", "setting": "HKU5-CoV 3CL^pro; [Compound F2] 400 nM", "result": "0.002007 and 0.00134 and 0.002594"}, {"measurement": "Ki", "setting": "HKU5-CoV 3CL^pro; mean ± SEM", "result": 0.033, "unit": "nM"}, {"measurement": "Ki", "setting": "HKU1-CoV 3CL^pro", "result": "0.85 ± 0.24", "unit": "nM"}, {"measurement": "EC50", "setting": "SARS-CoV-2 [2]; P-gp inhibitor 0 uM", "result": 193, "unit": "nM"}, {"measurement": "EC50", "setting": "SARS-CoV-2 [2]; P-gp inhibitor 1 uM", "result": 178, "unit": "nM"}, {"measurement": "EC90", "setting": "SARS-CoV-2 [2]; human lung carcinoma cells", "result": 440, "unit": "nM"}, {"measurement": "microsomal CLint at 1 µM", "setting": "[3]; liver microsomes", "result": 14, "unit": "µL/min/mg"}, {"measurement": "microsomal CLint at 1 µM", "setting": "[3]; pooled human liver microsomes", "result": 7.5, "unit": "µL/min/mg"}, {"measurement": "MBI Kapp", "setting": "CYP3A4/5", "result": 163.000, "unit": "µM"}, {"measurement": "IC50", "setting": "Human Cathepsin D", "result": "> 11000", "unit": "nM"}, {"measurement": "EC50", "setting": "SARS-CoV-2 [4]", "result": "60 ± 30", "unit": "nM"}, {"measurement": "Cmin unbound exposure", "setting": "[5]", "result": 1700, "unit": "nM"}, {"measurement": "Ki", "setting": "MHV-CoV 3CL^pro", "result": "1.2 ± 0.9", "unit": "nM"}, {"measurement": "fu, human liver microsomal binding", "setting": "[6]; Microsomal protein 0.806mg/ml, individual replicates", "result": "0.70 and 0.77"}, {"measurement": "HLM microsomal binding", "setting": "[6]; clearance input", "result": 0.75}, {"measurement": "fraction unbound at 6 h", "setting": "[6]; human liver microsomal binding, Geomean, Microsomal protein 0.806mg/ml", "result": 0.75}, {"measurement": "fraction unbound at 6 h", "setting": "[6]; human liver microsomal binding, Microsomal protein 0.806mg/ml, individual replicates", "result": 0.84}, {"measurement": "fraction unbound at 6 h", "setting": "[6]; microsomal protein 0.806mg/ml, individual replicates n=1-4", "result": 0.7}, {"measurement": "fm,CYP3A", "setting": "CYP3A; formation of the metabolite from PF-00835231 in HLM", "result": 0.86}, {"measurement": "microsomal CLint", "setting": "CYP3A; human, pooled human liver microsomes, pH 7.5", "result": 4.2, "unit": "µL/min/mg"}, {"measurement": "fm,CYP3A", "setting": "[7]; Predicted from in vitro phenotyping data", "result": 0.76}, {"measurement": "CLint", "setting": "[7]; Simcyp elimination input, Recombinant, CYP3A4, Pathway 1", "result": 0.147, "unit": "µL/min/pmol"}, {"measurement": "CL renal", "setting": "[7]; human", "result": 50, "unit": "mL/min"}, {"measurement": "clearance", "setting": "[7]; human, plasma", "result": 417, "unit": "mL/min"}, {"measurement": "Ki", "setting": "NL63-CoV 3CL^pro", "result": "0.77 ± 0.52", "unit": "nM"}]}
